The values below come from patent US10316039B2, “P2X3 and/or P2X2/3 compounds and methods” (Asana Biosciences, LLC, priority 2013, dated 2019).

The target of assay [1] is T1, P2X3 (UniProt P56373).
T1 sequence (P56373 1-397): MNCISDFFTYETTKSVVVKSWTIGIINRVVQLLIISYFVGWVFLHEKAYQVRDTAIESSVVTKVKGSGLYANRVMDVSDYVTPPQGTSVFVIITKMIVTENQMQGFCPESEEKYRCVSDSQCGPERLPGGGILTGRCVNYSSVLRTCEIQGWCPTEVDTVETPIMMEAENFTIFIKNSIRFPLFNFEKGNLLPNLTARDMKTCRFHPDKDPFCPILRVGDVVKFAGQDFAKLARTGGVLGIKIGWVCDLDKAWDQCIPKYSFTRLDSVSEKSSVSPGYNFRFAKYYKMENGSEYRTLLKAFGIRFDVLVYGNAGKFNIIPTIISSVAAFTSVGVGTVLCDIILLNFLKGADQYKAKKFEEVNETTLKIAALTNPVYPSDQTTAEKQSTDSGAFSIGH
Description: P2X3 FLIPR intracellular calcium assay. The assay is classed as cell-based. The following applies: agonist at EC75, species (human or rat) not given. Summed up: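 Human P2X3-HEK, human P2X2/3-TRex293, rat P2X2/3-TRex293 or rat P2X3 TRex-CHO cells loaded with Calcium 4 dye (1.8 mM probenecid, pH 7.4).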

Assay [2] deals with T2, P2X2/3 (Homo sapiens, UniProt P56373+Q9UBL9).
T2 sequence (Q9UBL9 1-471): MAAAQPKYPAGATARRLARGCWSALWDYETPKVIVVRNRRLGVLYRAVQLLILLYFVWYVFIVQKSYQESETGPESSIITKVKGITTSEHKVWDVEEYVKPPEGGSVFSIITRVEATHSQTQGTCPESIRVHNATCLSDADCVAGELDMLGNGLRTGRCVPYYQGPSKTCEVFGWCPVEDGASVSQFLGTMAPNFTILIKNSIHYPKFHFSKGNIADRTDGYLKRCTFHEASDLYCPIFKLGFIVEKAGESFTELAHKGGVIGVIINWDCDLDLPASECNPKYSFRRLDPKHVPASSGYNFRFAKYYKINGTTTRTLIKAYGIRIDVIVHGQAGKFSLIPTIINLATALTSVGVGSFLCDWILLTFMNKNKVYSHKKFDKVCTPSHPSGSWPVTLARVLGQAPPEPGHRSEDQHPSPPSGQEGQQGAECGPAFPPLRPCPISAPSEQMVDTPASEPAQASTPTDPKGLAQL
T2 sequence (P56373 1-397): T1 sequence (P56373 1-397)
Description: P2X2/3 FLIPR intracellular calcium assay. The class given is cell-based. The following applies: agonist at EC75, species (human or rat) not given. In short, it runs like this:
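Stable human P2X2/3 TRex293 cells (doxycycline-induced) loaded with Calcium 4 dye; compounds, 11-point half-log series from 2 mM top stock, preincubated 15 min at RT in HBSS/HEPES pH 7.4 with 1.8 mM CaCl2. Agonist added at EC75; fluorescence change versus no-compound wells gave IC50.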

Regarding `Cc1ccc(-c2cnc3c(-n4nncc4C(F)F)cc(C(=O)N[C@@H](C)c4nnc[nH]4)cn23)o1` [Example 60], the IC50 in assay [1] and in assay [2] was 0.001 to 0.1 µM in each case.
On to `CC[C@H](NC(=O)c1cc(-n2nncc2C(C)C)c2ncc(-c3ccc(C)s3)n2c1)c1nnc[nH]1` [Example 61], for which the IC50 in assay [1] and in assay [2] was 0.001 to 0.1 µM in each case.
Consider `CCc1cnnn1-c1cc(C(=O)N[C@@H](C)c2nnc[nH]2)cn2c(-c3ccc(C)o3)cnc12` [Example 62], for which the IC50 in assay [1] is 0.001 to 0.1 µM; in assay [2] it was 0.1 to 1 µM.
For the compound `CCCc1cnnn1-c1cc(C(=O)N[C@@H](C)c2nnc[nH]2)cn2c(-c3ccc(C)s3)cnc12` [Example 63], the IC50 in assay [1] and in assay [2] was 0.001 to 0.1 µM each time.
Consider `CCCc1cnnn1-c1cc(C(=O)NCc2cnc(C)nc2)cn2c(-c3ncc(C)s3)cnc12` [Example 64], for which the IC50 in assay [1] lay in the range of 0.001 to 0.1 µM; in assay [2], 0.1 to 1 µM.
In the same order, the values of `Cc1ncc(CNC(=O)c2cc(-n3nncc3C(F)F)c3ncc(-c4ccc(C)o4)n3c2)cn1` [Example 65] are 0.001 to 0.1 µM and 0.001 to 0.1 µM.
`Cc1ncc(CNC(=O)c2cc(-n3nncc3C(F)F)c3ncc(-c4cnc(C)s4)n3c2)cn1` [Example 66]: the IC50 in assay [1] and in assay [2] was 0.1 to 1 µM each time.
`CC[C@H](NC(=O)c1cc(-n2nncc2C(C)(C)C)c2ncc(-c3ccc(C)s3)n2c1)c1nnc[nH]1` [Example 67]: the IC50 in assay [1] and in assay [2] was 0.001 to 0.1 µM throughout.
On to `Cc1ncc(CNC(=O)c2cc(-n3nncc3C(F)(F)F)c3ncc(-c4ncc(C)s4)n3c2)cn1` [Example 68], for which the IC50 lay within 0.001 to 0.1 µM in assay [1] and 0.1 to 1 µM in assay [2].
The corresponding values for `CC[C@H](NC(=O)c1cc(-n2nncc2C(C)C)c2ncc(-c3ccc(Cl)s3)n2c1)c1nnc[nH]1` [Example 69] are 0.001 to 0.1 µM and 0.1 to 1 µM.
In the same order, the values of `Cc1ccc(-c2cnc3c(-n4nncc4C(C)(F)F)cc(C(=O)N[C@@H](C)c4nnc[nH]4)cn23)s1` [Example 70] are 0.001 to 0.1 µM and 0.001 to 0.1 µM.
Consider `Cc1ncc(CNC(=O)c2cc(-n3nncc3C(C)(F)F)c3ncc(-c4ncc(C)s4)n3c2)cn1` [Example 71], for which the results for the IC50 in assay [1] and in assay [2] were 0.001 to 0.1 µM and 0.1 to 1 µM, respectively.
The corresponding values for `Cc1ncc(CNC(=O)c2cc(-n3nncc3C(C)(F)F)c3ncc(-c4ccc(C)s4)n3c2)cn1` [Example 72] are 0.001 to 0.1 µM and 0.001 to 0.1 µM.
In the case of `CCc1cnnn1-c1cc(C(=O)N[C@H](c2nnc[nH]2)C(C)C)cn2c(-c3ccc(C)s3)cnc12` [Example 73], the half-inhibitory concentration (IC50) in assay [1] and in assay [2] was 0.1 to 1 µM in each case.
With `Cc1ccc(-c2cnc3c(-n4nncc4C)cc(C(=O)N[C@H](c4nnc[nH]4)C(C)C)cn23)s1` [Example 74], the IC50 in assay [1] fell in the range of 0.1 to 1 µM; in assay [2] it was 1 to 10 µM.
With `CCc1cnnn1-c1cc(C(=O)NCc2cnc(C)nc2)cn2c(-c3ncc(C)s3)cnc12` [Example 75], the IC50 in assay [1] was in the range of 0.001 to 0.1 µM; in assay [2], 0.1 to 1 µM.
The corresponding values for `C[C@H](NC(=O)c1cc(-n2nncc2C(C)(F)F)c2ncc(-c3ccc(Cl)s3)n2c1)c1nnc[nH]1` [Example 76] are 0.001 to 0.1 µM and 0.001 to 0.1 µM.
In the same order, the values of `Cc1cnc(CNC(=O)c2cc(-n3nncc3C(F)F)c3ncc(-c4ncc(C)s4)n3c2)cn1` [Example 77] are 0.001 to 0.1 µM and 0.1 to 1 µM.
The corresponding values for `Cc1cnc(CNC(=O)c2cc(-n3nncc3C(F)F)c3ncc(-c4ccc(C)o4)n3c2)cn1` [Example 78] are 0.001 to 0.1 µM and 0.001 to 0.1 µM.
Regarding `C[C@H](NC(=O)c1cc(-n2nncc2C(F)(F)F)c2ncc(-c3ccc(Cl)s3)n2c1)c1nnc[nH]1` [Example 79], the IC50 in assay [1] and in assay [2] was 0.001 to 0.1 µM in each case.
With `Cc1ncc(CNC(=O)c2cc(-n3nncc3CC(F)(F)F)c3ncc(-c4ccc(C)s4)n3c2)cn1` [Example 80], the IC50 in assay [1] and in assay [2] was 0.001 to 0.1 µM throughout.
For the compound `Cc1ccc(-c2cnc3c(-n4nncc4CC(F)(F)F)cc(C(=O)N[C@@H](C)c4nnc[nH]4)cn23)s1` [Example 81], the IC50 in assay [1] and in assay [2] was 0.001 to 0.1 µM throughout.
As to `Cc1ncc(CNC(=O)c2cc(-n3nncc3CC(F)(F)F)c3ncc(-c4ncc(C)s4)n3c2)cn1` [Example 82], the figures for the IC50 in assay [1] and in assay [2] were 0.001 to 0.1 µM and 0.1 to 1 µM, respectively.
The corresponding values for `COc1ccc(CNC(=O)c2cc(-n3nncc3C(F)F)c3ncc(-c4ccc(C)s4)n3c2)cn1` [Example 83] are 0.001 to 0.1 µM and 0.001 to 0.1 µM.
For the compound `Cc1ncc([C@@H](C)NC(=O)c2cc(-n3nncc3C(F)F)c3ncc(-c4ncc(C)s4)n3c2)cn1` [Example 84], the IC50 in assay [1] and in assay [2] was 0.001 to 0.1 µM each time.
Take `Cc1noc([C@@H](C)NC(=O)c2cc(-n3nncc3C(F)F)c3ncc(-c4ccc(C)s4)n3c2)n1` [Example 85]: the IC50 in assay [1] and in assay [2] was 0.001 to 0.1 µM in each case.
On to `COc1ncc(CNC(=O)c2cc(-n3nncc3C(F)(F)F)c3ncc(-c4ncc(C)s4)n3c2)cn1` [Example 86], for which the IC50 in assay [1] and in assay [2] was 0.1 to 1 µM in each case.
In the case of `Cc1ccc(CNC(=O)c2cc(-n3nncc3C(C)(F)F)c3ncc(-c4ncc(C)s4)n3c2)cn1` [Example 87], the IC50 in assay [1] and in assay [2] was 0.1 to 1 µM each time.
As to `CCc1cnnn1-c1cc(C(=O)N[C@H](C)c2nc(C)no2)cn2c(-c3ccc(C)s3)cnc12` [Example 88], the IC50 in assay [1] was above 10 µM; in assay [2], 0.001 to 0.1 µM.
Turning to `Cc1ccc(-c2cnc3c(Nc4ccccc4)cc(C(=O)NCc4ccn(C)c(=O)c4)cn23)s1` [Example 90], the IC50 lay within 0.001 to 0.1 µM in assay [1] and 1 to 10 µM in assay [2].
On to `Cc1ccc(CNC(=O)c2cc(Nc3ccccc3)c3ncc(-c4ccc(C)s4)n3c2)cn1` [Example 91], for which the IC50 was 0.1 to 1 µM in assay [1] and 1 to 10 µM in assay [2].
In the same order, the values of `Cc1ccc(-c2cnc3c(Nc4nccs4)cc(C(=O)N[C@@H](C)c4nnc[nH]4)cn23)s1` [Example 92] are 0.1 to 1 µM and 1 to 10 µM.
In the same order, the values of `Cc1ccc(-c2cnc3c(Nc4nccs4)cc(C(=O)NCc4ccn(C)c(=O)c4)cn23)s1` [Example 93] are 0.1 to 1 µM and 1 to 10 µM.
In the same order, the values of `Cc1ccc(-c2cnc3c(Nc4ncc(C)s4)cc(C(=O)N[C@@H](C)c4nnc[nH]4)cn23)s1` [Example 94] are 0.001 to 0.1 µM and 1 to 10 µM.
As for `Cc1ccc(-c2cnc3c(Nc4ccc(F)cc4)cc(C(=O)N[C@@H](C)c4nnc[nH]4)cn23)s1` [Example 95], the concentration for half-maximal inhibition (IC50) is 0.001 to 0.1 µM in assay [1] and above 10 µM in assay [2].
In the same order, the values of `COc1ccccc1Nc1cc(C(=O)N[C@@H](C)c2nnc[nH]2)cn2c(-c3ccc(C)s3)cnc12` [Example 96] are 0.1 to 1 µM and 0.1 to 1 µM.
In the case of `Cc1ccc(CNC(=O)c2cc(-c3cnn(C)c3)c3ncc(-c4ccc(C)s4)n3c2)cn1` [Example 98], the IC50 in assay [1] was in the range of 1 to 10 µM; in assay [2], 0.1 to 1 µM.
`Cc1ccc(-c2cnc3c(-c4cnn(C)c4)cc(C(=O)NCc4ccn(C)c(=O)c4)cn23)s1` [Example 99]: the IC50 in assay [1] was in the range of 0.001 to 0.1 µM; in assay [2], 1 to 10 µM.
With `Cc1ccc(-c2cnc3c(-c4ccnn4C)cc(C(=O)N[C@@H](C)c4nnc[nH]4)cn23)s1` [Example 100], the IC50 in assay [1] lay in the range of 0.001 to 0.1 µM; in assay [2], 0.1 to 1 µM.
In the same order, the values of `Cc1ccc(-c2cc(C(=O)N[C@@H](C)c3nnc[nH]3)cn3c(-c4ccc(C)s4)cnc23)s1` [Example 101] are 0.001 to 0.1 µM and 0.001 to 0.1 µM.
Turning to `Cc1ccc(-c2cnc3c(-c4c(C)noc4C)cc(C(=O)N[C@@H](C)c4nnc[nH]4)cn23)s1` [Example 102], the IC50 in assay [1] and in assay [2] was 0.001 to 0.1 µM each time.
Regarding `CCn1nccc1-c1cc(C(=O)N[C@@H](C)c2nnc[nH]2)cn2c(-c3ccc(C)s3)cnc12` [Example 103], the IC50 in assay [1] lay within 0.001 to 0.1 µM; in assay [2], 0.1 to 1 µM.
With `Cc1ccc(-c2cnc3c(-c4cnn(CC5CC5)c4)cc(C(=O)N[C@@H](C)c4nnc[nH]4)cn23)s1` [Example 104], the IC50 in assay [1] was 0.001 to 0.1 µM; in assay [2], 0.1 to 1 µM.
`Cc1ccc(-c2cnc3c(-c4cnn(CCF)c4)cc(C(=O)N[C@@H](C)c4nnc[nH]4)cn23)s1` [Example 105]: the results for the IC50 in assay [1] and in assay [2] were 0.001 to 0.1 µM and 0.1 to 1 µM, respectively.
